Here are results for five molecules from US9173823B2, “Preparation for sun protection” (INSTITUT BIOPHYTIS SAS, priority 2009, dated 2015).

The conditions of data set [1]: bixin in an extract standardized at 92% bixin; norbixin for an extract standardized at 91% of norbixin; cited from earlier work.
A further data set has as its system E. coli. To be noted: UV-radiation in the presence of H2O2 or superoxide anion; cited from earlier work.
In the next data set the test system is SOS system. The note with it: in the presence of norbixin; cited from earlier work.
The test system of a further data set is plasmid DNA. The note with it: norbixin 10 μM, 10 μM H2O2, Sn^2+ or Fe^2+ ions; cited from earlier work.
For data set [2] the following is noted: after ingestion of an oily annatto solution containing 16 mg bixin, cited from earlier work; for time for which the plasma concentration was observed: norbixin above 25 ng·mL^−1, bixin at 10 ng·mL^−1.
The test system of a further data set is human skin explants. Put plainly: Sunburn cell (SBC) count in UV-irradiated human skin explants. It is filed as cell-based. To be noted: for reduction of the number of SBC in the epidermis compared to the untreated and irradiated skin: 7 days of treatment, UV irradiation; for reduction of the number of SBC in the epidermis compared to the untreated and irradiated skin / Number of SBC per cm, Irradiated, Average: P1 330 ng·mL-1, P2 and P3 15.5 ng·mL-1; for Number of SBC per cm, Irradiated, Average: UVB 0.30 J/cm^2 and UVA 9 J/cm^2 on day 7, collection 24 hours after irradiation; for Number of SBC per cm, Unirradiated, Mean: unirradiated explants, day 8, P1 330 ng·mL-1, P2 and P3 15.5 ng·mL-1 in medium from day 0. The procedure:
3. Experimental Study of the Effect of a Bixin-Enriched Urucum Extract, of Bixin and of Norbixin (FIG. 1). Following treatment and UV-B irradiation of human skin explants, a Masson trichrome staining allows the visualization and counting of SBC. 3.1 Tested Products: • P1: urucum organic extract titrated at 6% bixin (330 ng·mL-1) • P2: pure bixin (15.5 ng·mL-1) • P3: pure norbixin (15.5 ng·mL-1) 27 explants (3 per condition) with a diameter of 10 mm were prepared from an abdominoplasty. The explants were cultured at 37° C. in a humid atmosphere containing 5% CO2. These explants were divided into nine (9) batches as follows: Urucum extract was dissolved in DMSO. The three products were added to the medium on the first day (D0), in order to achieve the desired final concentrations. The final amount of DMSO in the medium still remained below 1%. The explants of the control batch received no treatment. On day 7, the explants were exposed to UVB at a dose of 0.30 J/cm^2 and UVA at a dose of 9 J/cm^2. Non-irradiated batches were placed in the dark during the whole irradiation time. Immediately after irradiation, the explants were put back into culture medium. At day 8, i.e. 24 hours after irradiation, the three explants from each batch were taken and processed in the same way. After 48 hours of fixation in Bouin's fixative, samples were dried and impregnated in paraffin using a Leica 1020 automated dehydration controller. Microscopic observations were made by optical microscopy using a Leica DMLB model, with the ×40 lens. Observation of the morphology was performed on paraffin sections after staining with Goldner's variant of Masson's trichrome. Sunburn cells (SBC) were counted throughout each epidermis. The length of each epidermis was measured using the measurement module of the Leica IM1000 and the number of SBC per cm of skin was then calculated.

The test system of a further data set is Salmonella typhimurium. To be noted: cited from earlier work.
For data set [3] the following is noted: cell-free, xanthine/xanthine oxidase system; cited from earlier work.
Another data set relates to chromosomal damage. The note with it: mice, oral, 200 mg per kilogram of body weight before γ-irradiation (1.5-3.0 Gy); cited from earlier work.
The conditions of data set [4]: orally administered prior to chemotherapy; cited from earlier work.
For data set [5] the following is noted: single dose of 120 mg or daily dose of 90 mg over 23 days; cited from earlier work.

Take `CC(/C=C/C=C(C)/C=C/C(=O)O)=C\C=C\C=C(C)\C=C\C=C(C)\C=C\C(=O)O` (stereo in doubt) [P3, norbixin]: the “daily acceptable dose (JECFA)” value in [1] is 0.6 mg/kg. Moreover, the “increase of survival of bacteria (factor)” value in the data set on E. coli was 10. For the same molecule, the “reduction of the UV-C induced SOS system” value in the data set with SOS system was 2.3 times. The “protection of plasmid DNA against breaks” value in the data set on plasmid DNA is “protect plasmid DNA”. In data set [2], the plasma concentration result is listed as “higher than 25 ng·mL^−1” and the “time for which the plasma concentration was observed” value is on record as “more than 6 hours”. Besides, in the data set on human skin explants, the “reduction of the number of SBC in the epidermis compared to the untreated and irradiated skin” value is 84.4%; the “Number of SBC per cm, Irradiated, Average” value stood at 25.5 per cm; the “Number of SBC per cm, Unirradiated, Mean” value was 0.3 per cm. In addition, the “reduction of the mutagenic effect of H2O2” value in the data set with Salmonella typhimurium is given as 87%.

`COC(=O)/C=C/C(C)=C\C=C\C(C)=C\C=C\C=C(C)\C=C\C=C(C)\C=C\C(=O)O` [P2, bixin]: in data set [1], the “daily acceptable dose (JECFA)” value is 12 mg/kg. The “superoxide scavenging ability, decreasing order” value in data set [3] is “canthaxanthin>bixin>lutein>β-carotene”. In the data set on chromosomal damage, the “chromosomal damage, micronucleus test” value is given as “reduced the occurrence of chromosomal damage”. Also, in data set [2], the plasma concentration is 10 ng/mL and the “time for which the plasma concentration was observed” value is recorded as “less than 4 hours”. Moreover, in data set [4], the “effect on side-effects of chemotherapy” value is listed as “reduce the side-effects of chemotherapy”. Besides, in the data set on human skin explants, the “reduction of the number of SBC in the epidermis compared to the untreated and irradiated skin” value is 74.4%; the “Number of SBC per cm, Irradiated, Average” value is 41.9 per cm; the “Number of SBC per cm, Unirradiated, Mean” value was determined as 0.3 per cm.

Take `CC1=C(/C=C/C(C)=C/C=C/C(C)=C/C=C/C=C(C)/C=C/C=C(C)/C=C/C2=C(C)C(=O)CCC2(C)C)C(C)(C)CCC1=O` [canthaxanthin]: the “superoxide scavenging ability, decreasing order” value in [3] is given as “canthaxanthin>bixin>lutein>β-carotene”.

For the molecule `CC1=C[C@H](O)CC(C)(C)[C@H]1/C=C/C(C)=C/C=C/C(C)=C/C=C/C=C(C)/C=C/C=C(C)/C=C/C1=C(C)C[C@@H](O)CC1(C)C` [lutein], the “superoxide scavenging ability, decreasing order” value in data set [3] is on record as “canthaxanthin>bixin>lutein>β-carotene”.

With `CC1=C(/C=C/C(C)=C/C=C/C(C)=C/C=C/C=C(C)/C=C/C=C(C)/C=C/C2=C(C)CCCC2(C)C)C(C)(C)CCC1` [β-carotene], the “protective effect against sun” value in data set [5] is “ineffective”. In addition, in data set [3], the “superoxide scavenging ability, decreasing order” value is given as “canthaxanthin>bixin>lutein>β-carotene”.
